According to PubChem BioAssay (NCI):
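Values below derive from 48-hour exposures of cells grown in 96-well plates, with endpoints linearly interpolated between the two concentrations bracketing the appropriate inhibition level. GI50 is the concentration that inhibits growth by half. The concentration for full growth arrest is given as TGI.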

Columns and labels:
Assay in all cases: NCI anticancer screen, dose series, 48 h
786-0 renal = system: 786-0 renal
A498 renal = system: A498 renal
A549 NSCLC = system: A549 NSCLC
BT-549 breast = system: BT-549 breast
CAKI-1 renal = system: CAKI-1 renal
CCRF-CEM leukemia = system: CCRF-CEM leukemia
COLO 205 colon = system: COLO 205 colon
DU-145 prostate = system: DU-145 prostate
HCT-116 colon = system: HCT-116 colon
HCT-15 colon = system: HCT-15 colon
HL-60(TB) leukemia = system: HL-60(TB) leukemia
HOP-62 NSCLC = system: HOP-62 NSCLC
HOP-92 NSCLC = system: HOP-92 NSCLC
HS 578T breast = system: HS 578T breast
HT29 colon = system: HT29 colon
IGROV1 ovarian = system: IGROV1 ovarian
K-562 leukemia = system: K-562 leukemia
KM12 colon = system: KM12 colon
LOX IMVI melanoma = system: LOX IMVI melanoma
M14 melanoma = system: M14 melanoma
MALME-3M melanoma = system: MALME-3M melanoma
MDA-MB-231 breast = system: MDA-MB-231 breast
MDA-MB-435 = system: MDA-MB-435
MDA-MB-468 breast = system: MDA-MB-468 breast
MOLT-4 leukemia = system: MOLT-4 leukemia
NCI-H23 lung = system: NCI-H23 lung
NCI-H522 lung = system: NCI-H522 lung
NCI/ADR-RES ovarian = system: NCI/ADR-RES ovarian
OVCAR-8 ovarian = system: OVCAR-8 ovarian
PC-3 prostate = system: PC-3 prostate
RPMI-8226 leukemia = system: RPMI-8226 leukemia
RXF 393 renal = system: RXF 393 renal
SF-268 CNS = system: SF-268 CNS
SF-295 CNS = system: SF-295 CNS
SF-539 CNS = system: SF-539 CNS
SK-MEL-2 melanoma = system: SK-MEL-2 melanoma
SK-MEL-28 melanoma = system: SK-MEL-28 melanoma
SK-OV-3 ovarian = system: SK-OV-3 ovarian
SNB-19 CNS = system: SNB-19 CNS
SNB-75 CNS = system: SNB-75 CNS
SR leukemia = system: SR leukemia
SW-620 colon = system: SW-620 colon
TK-10 renal = system: TK-10 renal
U251 CNS = system: U251 CNS
UACC-257 melanoma = system: UACC-257 melanoma
UACC-62 melanoma = system: UACC-62 melanoma

Cc1noc2c(Cc3ccccc3)nn(CC(=O)N/N=C/c3ccc(Cl)cc3)c(=O)c12
GI50 (786-0 renal): 1.94 µM | TGI (786-0 renal): 3.84 µM | GI50 (A498 renal): 1.65 µM | TGI (A498 renal): 3.11 µM | GI50 (A549 NSCLC): 3.87 µM | TGI (A549 NSCLC): > 100 µM | GI50 (BT-549 breast): 23.8 µM | TGI (BT-549 breast): 90.6 µM | GI50 (CAKI-1 renal): 2.88 µM | TGI (CAKI-1 renal): 11.1 µM | GI50 (CCRF-CEM leukemia): 21.1 µM | TGI (CCRF-CEM leukemia): > 100 µM | GI50 (COLO 205 colon): 5.04 µM | TGI (COLO 205 colon): > 100 µM | GI50 (DU-145 prostate): > 100 µM | TGI (DU-145 prostate): > 100 µM | GI50 (HCT-116 colon): 3.16 µM | TGI (HCT-116 colon): > 100 µM | GI50 (HCT-15 colon): > 100 µM | TGI (HCT-15 colon): > 100 µM | GI50 (HL-60(TB) leukemia): > 100 µM | TGI (HL-60(TB) leukemia): > 100 µM | GI50 (HOP-62 NSCLC): 2.06 µM | TGI (HOP-62 NSCLC): 4.97 µM | GI50 (HOP-92 NSCLC): 3.01 µM | TGI (HOP-92 NSCLC): 16.6 µM | GI50 (HS 578T breast): 2.31 µM | TGI (HS 578T breast): 6.23 µM | GI50 (HT29 colon): > 100 µM | TGI (HT29 colon): > 100 µM | GI50 (IGROV1 ovarian): 6.95 µM | TGI (IGROV1 ovarian): 31.2 µM | GI50 (K-562 leukemia): 88.6 µM | TGI (K-562 leukemia): > 100 µM | GI50 (KM12 colon): > 100 µM | TGI (KM12 colon): > 100 µM | GI50 (LOX IMVI melanoma): 5.61 µM | TGI (LOX IMVI melanoma): > 100 µM | GI50 (M14 melanoma): 43.6 µM | TGI (M14 melanoma): > 100 µM | GI50 (MALME-3M melanoma): 4.23 µM | TGI (MALME-3M melanoma): 29.1 µM | GI50 (MDA-MB-231 breast): 2.59 µM | TGI (MDA-MB-231 breast): 7.3 µM | GI50 (MDA-MB-435): > 100 µM | TGI (MDA-MB-435): > 100 µM | GI50 (MDA-MB-468 breast): 8.11 µM | TGI (MDA-MB-468 breast): 36.2 µM | GI50 (MOLT-4 leukemia): > 100 µM | TGI (MOLT-4 leukemia): > 100 µM | GI50 (NCI-H23 lung): 10.2 µM | TGI (NCI-H23 lung): 53.7 µM | GI50 (NCI-H522 lung): 15.4 µM | TGI (NCI-H522 lung): > 100 µM | GI50 (NCI/ADR-RES ovarian): 4.93 µM | TGI (NCI/ADR-RES ovarian): > 100 µM | GI50 (OVCAR-8 ovarian): 3.18 µM | TGI (OVCAR-8 ovarian): > 100 µM | GI50 (PC-3 prostate): > 100 µM | TGI (PC-3 prostate): > 100 µM | GI50 (RPMI-8226 leukemia): 8.98 µM | TGI (RPMI-8226 leukemia): > 100 µM | GI50 (RXF 393 renal): 2.15 µM | TGI (RXF 393 renal): 6.87 µM | GI50 (SF-268 CNS): 7.82 µM | TGI (SF-268 CNS): > 100 µM | GI50 (SF-295 CNS): 3.19 µM | TGI (SF-295 CNS): 8.64 µM | GI50 (SF-539 CNS): 14.1 µM | TGI (SF-539 CNS): 35.9 µM | GI50 (SK-MEL-2 melanoma): 19.1 µM | TGI (SK-MEL-2 melanoma): 38.4 µM | GI50 (SK-MEL-28 melanoma): > 100 µM | TGI (SK-MEL-28 melanoma): > 100 µM | GI50 (SK-OV-3 ovarian): 2.34 µM | TGI (SK-OV-3 ovarian): 5.85 µM | GI50 (SNB-19 CNS): 8.48 µM | TGI (SNB-19 CNS): 26.7 µM | GI50 (SNB-75 CNS): 1.59 µM | TGI (SNB-75 CNS): 4.36 µM | GI50 (SR leukemia): 31.2 µM | TGI (SR leukemia): > 100 µM | GI50 (SW-620 colon): > 100 µM | TGI (SW-620 colon): > 100 µM | GI50 (TK-10 renal): 1.9 µM | TGI (TK-10 renal): 4.74 µM | GI50 (U251 CNS): 3.64 µM | TGI (U251 CNS): > 100 µM | GI50 (UACC-257 melanoma): > 100 µM | TGI (UACC-257 melanoma): > 100 µM | GI50 (UACC-62 melanoma): 18.3 µM | TGI (UACC-62 melanoma): 86 µM
